Measured values published in ChEMBL document CHEMBL1201862, “PubChem BioAssay data set” (2004).
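Assay format: 96-well plates, 48-hour exposure. GI50: concentration for 50% inhibition of growth.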 Calls of active or inactive are those of the source. No stated cut-off is given here; in the data, active = GI50 up to about 1.1 µM and inactive = higher.

Assays:
Assay in all cases: NCI tumour cell line growth inhibition, 48 h
OVCAR-4 = system: OVCAR-4
SK-OV-3 = system: SK-OV-3
XF498 = system: XF498
SF-295 = system: SF-295
RPMI-8226 = system: RPMI-8226
SK-MEL-5 = system: SK-MEL-5
MOLT-4 = system: MOLT-4
KM12 = system: KM12
OVCAR-5 = system: OVCAR-5
SNB-78 = system: SNB-78
LXFL 529 = system: LXFL 529
SW-620 = system: SW-620
UACC-257 = system: UACC-257
ACHN = system: ACHN
NCI-H522 = system: NCI-H522
SK-MEL-2 = system: SK-MEL-2
SF-268 = system: SF-268
A498 = system: A498
HOP-62 = system: HOP-62
OVCAR-8 = system: OVCAR-8
M19-MEL = system: M19-MEL
NCI-H23 = system: NCI-H23
Malme-3M = system: Malme-3M
DLD-1 = system: DLD-1
U-251 = system: U-251
CAKI-1 = system: CAKI-1
OVCAR-3 = system: OVCAR-3
SNB-75 = system: SNB-75
SK-MEL-28 = system: SK-MEL-28
KM-20L2 = system: KM-20L2
M14 = system: M14
786-0 = system: 786-0
TK-10 = system: TK-10
HT-29 = system: HT-29
K562 = system: K562
DMS-114 = system: DMS-114
NCI-H460 = system: NCI-H460
COLO 205 = system: COLO 205
EKVX = system: EKVX
IGROV-1 = system: IGROV-1
UACC-62 = system: UACC-62
SN12C = system: SN12C
UO-31 = system: UO-31
A549 = system: A549
CCRF-CEM = system: CCRF-CEM
HCC 2998 = system: HCC 2998
DMS-273 = system: DMS-273
HL-60 = system: HL-60
HCT-15 = system: HCT-15
SR = system: SR
NCI-H226 = system: NCI-H226
HCT-116 = system: HCT-116
RXF 393 = system: RXF 393
SF-539 = system: SF-539
LOX IMVI = system: LOX IMVI
HOP-92 = system: HOP-92
SNB-19 = system: SNB-19

## COc1cc2ccc3c4cc(OC)c(OCc5ccccc5)cc4cnc3c2cc1OC
OVCAR-4
  GI50: > 100 µM (inactive)
SK-OV-3
  GI50: > 100 µM (inactive)
XF498
  GI50: > 100 µM (inactive)
SF-295
  GI50: > 100 µM (inactive)
RPMI-8226
  GI50: 61.9 µM (inactive)
SK-MEL-5
  GI50: > 100 µM (inactive)
MOLT-4
  GI50: 70.6 µM (inactive)
KM12
  GI50: > 100 µM (inactive)
OVCAR-5
  GI50: > 100 µM (inactive)
SNB-78
  GI50: > 100 µM (inactive)
LXFL 529
  GI50: > 100 µM (inactive)
SW-620
  GI50: > 100 µM (inactive)
UACC-257
  GI50: > 100 µM (inactive)
ACHN
  GI50: > 100 µM (inactive)
NCI-H522
  GI50: > 100 µM (inactive)
SK-MEL-2
  GI50: > 100 µM (inactive)
SF-268
  GI50: > 100 µM (inactive)
A498
  GI50: > 100 µM (inactive)
HOP-62
  GI50: > 100 µM (inactive)
OVCAR-8
  GI50: > 100 µM (inactive)
M19-MEL
  GI50: > 100 µM (inactive)
NCI-H23
  GI50: > 100 µM (inactive)
Malme-3M
  GI50: > 100 µM (inactive)
DLD-1
  GI50: > 100 µM (inactive)
U-251
  GI50: > 100 µM (inactive)
CAKI-1
  GI50: > 100 µM (inactive)
OVCAR-3
  GI50: > 100 µM (inactive)
SNB-75
  GI50: > 100 µM (inactive)
SK-MEL-28
  GI50: > 100 µM (inactive)
KM-20L2
  GI50: > 100 µM (inactive)
M14
  GI50: > 100 µM (inactive)
786-0
  GI50: > 100 µM (inactive)
TK-10
  GI50: > 100 µM (inactive)
HT-29
  GI50: > 100 µM (inactive)
K562
  GI50: > 100 µM (inactive)
DMS-114
  GI50: > 100 µM (inactive)
NCI-H460
  GI50: > 100 µM (inactive)
COLO 205
  GI50: > 100 µM (inactive)
EKVX
  GI50: > 100 µM (inactive)
IGROV-1
  GI50: > 100 µM (inactive)
UACC-62
  GI50: > 100 µM (inactive)
SN12C
  GI50: > 100 µM (inactive)
UO-31
  GI50: 70 µM (inactive)
A549
  GI50: > 100 µM (inactive)
CCRF-CEM
  GI50: > 100 µM (inactive)
HCC 2998
  GI50: > 100 µM (inactive)

## CC(=O)CC(=O)ON(C)C(=O)Cc1ccccc1
OVCAR-4
  GI50: > 100 µM (inactive)
SK-OV-3
  GI50: > 100 µM (inactive)
XF498
  GI50: > 100 µM (inactive)
SF-295
  GI50: > 100 µM (inactive)
RPMI-8226
  GI50: > 100 µM (inactive)
DMS-273
  GI50: > 100 µM (inactive)
HL-60
  GI50: > 100 µM (inactive)
SK-MEL-5
  GI50: > 100 µM (inactive)
HCT-15
  GI50: > 100 µM
SR
  GI50: > 100 µM (inactive)
MOLT-4
  GI50: > 100 µM (inactive)
NCI-H226
  GI50: > 100 µM (inactive)
KM12
  GI50: > 100 µM (inactive)
OVCAR-5
  GI50: > 100 µM (inactive)
SNB-78
  GI50: > 100 µM (inactive)
LXFL 529
  GI50: > 100 µM (inactive)
SW-620
  GI50: > 100 µM (inactive)
UACC-257
  GI50: > 100 µM (inactive)
ACHN
  GI50: > 100 µM (inactive)
NCI-H522
  GI50: > 100 µM (inactive)
SF-268
  GI50: > 100 µM (inactive)
HCT-116
  GI50: > 100 µM (inactive)
RXF 393
  GI50: > 100 µM (inactive)
HOP-62
  GI50: > 100 µM (inactive)
OVCAR-8
  GI50: > 100 µM (inactive)
M19-MEL
  GI50: > 100 µM (inactive)
NCI-H23
  GI50: > 100 µM (inactive)
Malme-3M
  GI50: > 100 µM (inactive)
DLD-1
  GI50: > 100 µM (inactive)
U-251
  GI50: > 100 µM (inactive)
CAKI-1
  GI50: > 100 µM (inactive)
OVCAR-3
  GI50: > 100 µM (inactive)
SNB-75
  GI50: > 100 µM (inactive)
SK-MEL-28
  GI50: > 100 µM (inactive)
KM-20L2
  GI50: > 100 µM (inactive)
M14
  GI50: > 100 µM (inactive)
786-0
  GI50: > 100 µM (inactive)
TK-10
  GI50: > 100 µM (inactive)
HT-29
  GI50: > 100 µM (inactive)
SF-539
  GI50: > 100 µM (inactive)
K562
  GI50: > 100 µM (inactive)
DMS-114
  GI50: > 100 µM (inactive)
NCI-H460
  GI50: > 100 µM (inactive)
COLO 205
  GI50: > 100 µM (inactive)
LOX IMVI
  GI50: > 100 µM (inactive)
HOP-92
  GI50: > 100 µM (inactive)
IGROV-1
  GI50: > 100 µM (inactive)
SNB-19
  GI50: > 100 µM (inactive)
UACC-62
  GI50: > 100 µM (inactive)
SN12C
  GI50: > 100 µM (inactive)
UO-31
  GI50: > 100 µM (inactive)
A549
  GI50: > 100 µM (inactive)
CCRF-CEM
  GI50: > 100 µM (inactive)
HCC 2998
  GI50: > 100 µM (inactive)

## CCOC(=O)C(Cc1ccc2ccccc2c1)(Cc1ccc2ccccc2c1)C(C)=O
OVCAR-4
  GI50: 8.67 µM (inactive)
SK-OV-3
  GI50: > 10 µM (inactive)
XF498
  GI50: 3.39 µM (inactive)
RPMI-8226
  GI50: 1.86 µM (inactive)
DMS-273
  GI50: 5.38 µM (inactive)
HCT-15
  GI50: 8.47 µM
MOLT-4
  GI50: 0.635 µM (active)
SNB-78
  GI50: > 10 µM (inactive)
LXFL 529
  GI50: 4.47 µM (inactive)
SW-620
  GI50: > 10 µM (inactive)
ACHN
  GI50: > 10 µM (inactive)
HOP-62
  GI50: 7.53 µM (inactive)
M19-MEL
  GI50: > 10 µM (inactive)
Malme-3M
  GI50: 3.28 µM (inactive)
DLD-1
  GI50: 2.69 µM (inactive)
U-251
  GI50: > 10 µM (inactive)
KM-20L2
  GI50: > 10 µM (inactive)
M14
  GI50: > 10 µM (inactive)
786-0
  GI50: 4.92 µM (inactive)
K562
  GI50: 1.67 µM (inactive)
NCI-H460
  GI50: 7.31 µM (inactive)
COLO 205
  GI50: > 10 µM (inactive)
LOX IMVI
  GI50: > 10 µM (inactive)
HOP-92
  GI50: 5.41 µM (inactive)
IGROV-1
  GI50: > 10 µM (inactive)
UACC-62
  GI50: > 10 µM (inactive)
SN12C
  GI50: > 10 µM (inactive)
A549
  GI50: 3.78 µM (inactive)
CCRF-CEM
  GI50: 5.13 µM (inactive)
HCC 2998
  GI50: 3.02 µM (inactive)
